Values quoted from earlier work, collected in patent US20040265381A1, “Anti-asthmatic drug (asmakure) from indigenous herbs to cure the disease asthma” (priority 2001, published 2004).

CCN(CC)CC#CCOC(=O)C(O)(c1ccccc1)C1CCCCC1.Cl (stereo not drawn) [Oxybutynin, α-cyclohexyl-α-hydroxybenzeneacetic acid 4-(diethylamino)-2-butynyl ester hydrochloride]
start of pharmacological action (following oral administration): within one hour
half-life (in vivo): less than 2 hours
